{"source": "paper PMC5531494", "about": "“Target specificity, in vivo pharmacokinetics, and efficacy of the putative STAT3 inhibitor LY5 in osteosarcoma, Ewing's sarcoma, and rhabdomyosarcoma” (PLoS ONE, 2017)", "origin": "cited, not measured here", "settings": "earlier work of the authors; cited from earlier work", "data": [{"compound": "NS(=O)(=O)c1cccc2c1C(=O)c1cccc(O)c1C2=O", "note": "[LLL12]", "values": [{"measurement": "oral bioavailability", "value": "poor oral bioavailability"}]}]}
